From ChEMBL document CHEMBL1154434, “Novel keto-enamine Schiffs bases from 7-hydroxy-4-methyl-2-oxo-2H-benzo[h] chromene-8,10-dicarbaldehyde as potential antidyslipidemic and antioxidant agents” (2008)

Key:
Assay type in all cases: functional
[1] = Antioxidant activity assessed as inhibition of hydroxyl radical at 100 ug/mL
[2] = Antioxidant activity assessed as inhibition of microsomal lipid peroxidation at 100 ug/mL
[3] = tested on: Rattus norvegicus; assay: Antidyslipidemic activity in WR-1339-induced hyperlipidemic Charles Foster rat assessed as reduction in plasma cholesterol level at 100 mg/kg, po after 18 hrs; design: scale not given: the % may be the effect or the level left
[4] = tested on: Rattus norvegicus; assay: Antidyslipidemic activity in WR-1339-induced hyperlipidemic Charles Foster rat assessed as reduction in plasma triglyceride level at 100 mg/kg, po after 18 hrs; design: scale not given: the % may be the effect or the level left
[5] = tested on: Rattus norvegicus; assay: Antidyslipidemic activity in WR-1339-induced hyperlipidemic Charles Foster rat assessed as reduction in plasma phospholipid level at 100 mg/kg, po after 18 hrs; design: scale not given: the % may be the effect or the level left
[6] = Antioxidant activity assessed as inhibition of superoxide at 20 ug/mL
[7] = Antioxidant activity assessed as inhibition of superoxide at 100 ug/mL

Row | SMILES | inhibition [1] [%] | inhibition [2] [%] | Activity [3] [%] | Activity [4] [%] | Activity [5] [%] | inhibition [6] [%] | inhibition [7] [%]
1 | OC[C@@H](O)[C@@H](O)[C@H](O)[C@H](O)CO | 48 | 45 |  |  |  |  | 
2 | Cc1cc(=O)oc2c3c(ccc12)C(=O)/C(=C\NCCC1CNCCO1)C=C3C=O (stereo not given) |  | 31 | 20 | 25 | 21 |  | 
3 | Oc1ncnc2[nH]ncc12 |  |  |  |  |  | 90 | 
4 | Cc1c(C)c2c(c(C)c1O)CC[C@@](C)(CCC[C@H](C)CCC[C@H](C)CCCC(C)C)O2 | 48 | 45 |  |  |  |  | 
5 | CCCCCCCN/C=C1/C=C(C=O)c2c(ccc3c(C)cc(=O)oc23)C1=O | 49 | 34 | 24 | 22 | 20 |  | 45
6 | CCCCN/C=C1/C=C(C=O)c2c(ccc3c(C)cc(=O)oc23)C1=O |  | 37 |  |  |  |  | 
7 | Cc1ccc(C)c(OCCCC(C)(C)C(=O)O)c1 [GEMFIBROZIL] |  |  | 33 | 34 | 32 |  | 
8 | Cc1cc(=O)oc2c1ccc1c(O)c(C=O)cc(C=O)c12 | 52 | 27 | 23 | 21 | 25 |  | 72
